This is an account of results in PMC11939955, “Enhancing Antimicrobial Peptides from Frog Skin: A Rational Approach” (Biomolecules, 2025).

A short description of one assay: ABTS assay. The note with it: peptides 0.05, 0.025, 0.0125 mg/mL, 1 h dark, absorbance 734 nm, triplicate. How it is done: The 2,2-azinobis-3-ethylbenzothiazoline-6-sulfonic acid (ABTS^+) free radical-scavenging activity was determined following the method in [38]. The ABTS⁺ radical cation was generated by diluting a 245 mM ammonium persulfate (APS) solution at a ratio of 1:100 with a 7 mM ABTS solution, followed by overnight incubation in the dark at room temperature. The ABTS^+ solution was then diluted with water to obtain an absorbance of 0.70 at 734 nm immediately before the assay using a Shimadzu 1240 UV-visible spectrophotometer (Kyoto, Japan). The peptides were dissolved in PBS, and 10 µL aliquots of each peptide solution were incubated with 190 µL of the ABTS^+ solution in triplicate, at final concentrations of 0.05, 0.025, and 0.0125 mg/mL. After a 1 h incubation in the dark, the absorbance was measured at 734 nm. The radical-scavenging activity was quantified against a standard curve, with the results expressed as milligrams of Trolox equivalents per milligram of peptide.

A short description of assay [1]: DPPH radical-scavenging activity. The note with it: peptides 0.1, 0.05, 0.025 mg/mL, 30 min dark 25 °C, absorbance 515 nm, triplicate. The procedure:
A stock solution of 60 µM 1,1-diphenyl-2-picrylhydrazyl (DPPH) was prepared in ethanol, with its absorbance adjusted to 0.7 at 515 nm immediately before the assay using a Shimadzu 1240 UV–visible spectrophotometer (Kyoto, Japan). The peptides were dissolved in PBS, and 20 µL aliquots of each peptide solution were incubated with 180 µL of the ethanolic DPPH solution in triplicate, at final concentrations of 0.1, 0.05, and 0.025 mg/mL. For the negative control, 20 µL of PBS was mixed with 180 µL of the DPPH solution, while 20 µL of Trolox (6-hydroxy-2,5,7,8-tetramethylchroman-2-carboxylic acid) served as the positive control and standard. The mixtures were incubated in the dark at 25 °C for 30 min, after which, the absorbance was measured at 515 nm. The reduction in absorbance, indicative of DPPH-scavenging activity, was compared to a standard curve. The results were expressed as milligrams of Trolox equivalents per milligram of peptide (mg Trolox equivalents/mg of peptide).
A general note: Loss of DPPH colour is used to gauge radical scavenging.

The test system of a further assay is E. coli (ATCC 25922). Kind of assay: Synergistic checkerboard assay. The class given is cell-based, Escherichia coli. How it is done:
Briefly, working solutions of the peptides were prepared and serially diluted by half across the rows and columns of a microplate, ensuring that each well contained a unique combination of peptide concentrations. The starting concentrations corresponded to the respective MIC values of each peptide, followed by two-fold serial dilutions.
Each well was filled with 50 µL of the peptide solution (individual or combined) and 50 µL of a bacterial suspension (1 × 10^6 CFU/mL), resulting in a final bacterial concentration of 5 × 10^5 CFU/mL. The individual peptide solutions served as positive controls, while the MH medium was employed as a negative control. The microplates were incubated at 37 °C overnight. The test was performed in three independent experiments. The fractional inhibitory concentrations index (ΣFIC) was calculated using the following equation: (1) ∑FIC =MIC(A) in combination/MIC(A) alone+MIC(B) in combination /MIC(B) alone
The FIC index (ΣFIC) was interpreted as follows: ΣFIC ≤ 0.5 indicated synergy; 0.5 < ΣFIC ≤ 4 indicated no effect; and 4 < ΣFIC indicated antagonism.

Assay [2] relates to Acinetobacter baumannii (ATCC 13304). The class given is cell-based. How it is done:
(§1) Hylin-Pul3 and six derivatives (dHP3-31, dHP3-50, dHP3-50.137, dHP3-50.190, dHP3-84, and dHP3-84.39) were tested against two Gram-positive bacteria, Staphylococcus aureus (ATCC 25923) and Streptococcus mutans (ATCC 25175), as well as three Gram-negative bacteria: Escherichia coli (ATCC 25922), Klebsiella pneumoniae (ATCC 13883), and Acinetobacter baumannii (ATCC 13304). The minimal inhibitory concentration (MIC) was determined using the microbroth dilution.
(§2) The peptides were serially diluted in concentrations ranging 128 to 0.25 μM, with gentamicin serving as a positive control, which was serially diluted to concentrations of 20 to 0.04 μM. Bacterial cultures were prepared in Mueller–Hinton (MH) medium to achieve a final inoculum concentration of 5 × 10^5 CFU/mL. […] All tests were performed in duplicate and repeated across three independent experiments.

For assay [3], the system named is Streptococcus mutans (ATCC 25175). The class given is cell-based. The procedure:
as §1, §2

Assay [4] relates to Escherichia coli (ATCC 25922). The format is cell-based. How it is done:
as §1, §2

The subject of assay [5] is Staphylococcus aureus (ATCC 25923). The format is cell-based. The procedure: as §1, §2
For assay [6], the system named is Klebsiella pneumoniae (ATCC 13883). The class given is cell-based. The settings on record: ATCC 13883. The procedure:
as §1, §2

A short description of assay [7]: Carboxyfluorescein (CF) release from LUVs. Set-up: species or system E. coli. The note with it: at the lowest peptide concentrations (8, 32, 50, 64 μM tested); 10 min, ex 490 nm/em 517 nm, duplicate. How it is done:
Large unilamellar vesicles (LUVs) were prepared with the total lipid extract of E. coli (Avanti Polar Lipids). For this, an aliquot of 1 mg of lipids dissolved in chloroform was deposited into a glass tube and dried by evaporation with nitrogen (N2). The glass tube underwent vacuum treatment to eliminate any residual solvent traces. The lipids were then hydrated in 200 μL of a 5,6-carboxyfluorescein (CF) solution (Sigma-Aldrich) at a concentration of 49 mM, pH 8, and 431 mOsm/kgH2O through nine cycles of heating (70 °C for 30 s), vortexing (1 min), and freezing (ice bath for 30 s). A polycarbonate filter with a pore size of 100 nm was employed to standardize the liposome size. Twenty-one extrusion cycles were conducted at 40 °C through the filter, resulting in LUVs with an average diameter of 100 nm. Size exclusion chromatography (Sephadex G-25) was utilized to remove the CF outside of the LUVs.
The fluorescence spectra of the CF-filled LUVs were measured using a FluoroMax3 Jobin Yvon spectrofluorometer (Horiba Jobin Yvon; Edison, NJ, USA). A 200 μL aliquot of the LUVs containing 100 μM CF was utilized for the experiment. Excitation was performed over a wavelength range of 400 to 540 nm, with the emission recorded at 517 nm. The peptides were added at various final concentrations (8, 32, 50, and 64 μM), and the fluorescence was assessed 10 min after each addition. […]

Assay [8] relates to Human primary fibroblasts. The class given is cell-based. The settings on record: MTT, 24 h. How it is done:
Human primary fibroblasts were kindly provided by CellSeq Solutions (Belo Horizonte, Brazil) and cultured in DMEM (Dulbecco’s Modified Eagle’s Medium, Gibco, Waltham, MA, USA) supplemented with 10% (v/v) fetal bovine serum (FBS; Gibco, Waltham, MA, USA) and a 1000 U/mL penicillin/streptomycin solution (Gibco, Waltham, MA, USA). The cells were maintained at 5% CO2, 37 °C, and 95% humidity.
To investigate the impact of the antimicrobial peptides hylin-Pul3, dHP3-31, dHP3-50, dHP3-50.137, dHP3-50.190, dHP3-84, and dHP3-84.39 on primary human fibroblast proliferation and viability, the 3-(4,5-dimethylthiazol-2-yl)-2,5-diphenyl tetrazolium bromide (MTT) metabolization assay (Sigma Aldrich; Misuri, USA) was performed. Human fibroblast cells (7 × 10^3 cells/well) were plated in a 96-well plate and treated with 0.5, 1, 5, 10, 25, 50, and 100 μg/mL of each peptide for 24 h. After this period, the cells were incubated with 5 mg/mL MTT for 4 h. The formazan crystals formed were solubilized by adding dimethyl sulfoxide (DMSO). The absorbance was measured at 570 nm using a spectrophotometer (Multiskan™ FC Microplate Photometer; Thermo Fisher Scientific, Waltham, MA, USA).

[9] abbreviates: versus parent peptide hylin-Pul3.

“And” between values parts separate entries of the source, which are not always exact repeats. Identical values can stand only once. Where no end group is shown, it is not given here.

In the case of RAGALWPAIRGAIKKIIKK-NH2 [dHP3-50.137], in “ABTS assay”, the “Antioxidant activity ABTS” value is 0.08 mg Trolox/mg. In addition, the “Antioxidant activity DPPH” value in assay [1] was “did not reveal significant activity”. Also, the “Synergistic Activity, FIC Index (ΣFIC)” value with E. coli (ATCC 25922) (combination of dHP3-84 and dHP3-50.137, E. coli ATCC 25922, 5 × 10^5 CFU/mL, 37 °C overnight, three independent experiments, ΣFIC ≤ 0.5 = synergy) is recorded as 0.5. For the same substance, in the assay on E. coli (ATCC 25922) (dHP3-84 + dHP3-50.137, E. coli), the “Improvement of combined activity compared to each peptide individually” value is on record as 2 fold. Moreover, in assay [2], the “Antimicrobial Activity (MIC) A. baumannii ATCC 13304” value is given as 8.0 ± 0.0 µM. Moreover, the “Reduction in MIC against A. baumannii compared to hylin-Pul3” value in [2] (setting [9]) is 4 fold. Also, in assay [3], the “Antimicrobial Activity (MIC) S. mutans ATCC 25175” value is 32.0 ± 0.0 µM. Moreover, in [4], the “Antimicrobial Activity (MIC) E. coli ATCC 25922” value amounted to 4.0 ± 0.0 µM. Besides, the “Reduction in MIC of up to (Gram-negative strains) compared to hylin-Pul3” value in assay [4] (strain not given, largest reduction) is “up to 8 fold”. Also, the “Reduction in MIC against E. coli compared to hylin-Pul3” value in assay [4] (setting [9]) was 4 fold. Besides, in assay [5], the “Antimicrobial Activity (MIC) S. aureus ATCC 25923” value was found to be 64.0 ± 0.0 µM. The “Antimicrobial Activity (MIC) K. pneumoniae ATCC 13883” value in [6] was 53.3 ± 16.5 µM. Moreover, in assay [7], the “CF release from LUVs” value is 50%.
Regarding RRGKLIPRLAKAIGRLIRK-OH [dHP3-84.39], the “Concentration at which fibroblast viability increased (proliferative effect)” value in assay [8] is 5 μg/mL and 2.3 µM. The “Antimicrobial Activity (MIC) A. baumannii ATCC 13304” value in [2] is 16.0 ± 0.0 µM. In assay [3], the “Antimicrobial Activity (MIC) S. mutans ATCC 25175” value was greater than 64 µM. Moreover, the “Antimicrobial Activity (MIC) E. coli ATCC 25922” value in assay [4] amounted to 6.6 ± 4.8 µM. The “Antimicrobial Activity (MIC) S. aureus ATCC 25923” value in assay [5] is 26.6 ± 8.3 µM. Moreover, in assay [6], the “Antimicrobial Activity (MIC) K. pneumoniae ATCC 13883” value is 64.0 ± 0.0 µM. Also, in assay [7], the “CF release from LUVs” value stood at 50%.
